From US10286038B2, “Lysosome membrane protein 2 (LIMP-2) based peptides and related uses” (Northwestern University, priority 2016, dated 2019)

Molecular target: T1, recombinant α-mannosidase (LAMAN) (Homo sapiens, UniProt O00754)
T1 construct: purchased Zymenex, Hillerod, DK
T1 sequence (O00754 50-1011): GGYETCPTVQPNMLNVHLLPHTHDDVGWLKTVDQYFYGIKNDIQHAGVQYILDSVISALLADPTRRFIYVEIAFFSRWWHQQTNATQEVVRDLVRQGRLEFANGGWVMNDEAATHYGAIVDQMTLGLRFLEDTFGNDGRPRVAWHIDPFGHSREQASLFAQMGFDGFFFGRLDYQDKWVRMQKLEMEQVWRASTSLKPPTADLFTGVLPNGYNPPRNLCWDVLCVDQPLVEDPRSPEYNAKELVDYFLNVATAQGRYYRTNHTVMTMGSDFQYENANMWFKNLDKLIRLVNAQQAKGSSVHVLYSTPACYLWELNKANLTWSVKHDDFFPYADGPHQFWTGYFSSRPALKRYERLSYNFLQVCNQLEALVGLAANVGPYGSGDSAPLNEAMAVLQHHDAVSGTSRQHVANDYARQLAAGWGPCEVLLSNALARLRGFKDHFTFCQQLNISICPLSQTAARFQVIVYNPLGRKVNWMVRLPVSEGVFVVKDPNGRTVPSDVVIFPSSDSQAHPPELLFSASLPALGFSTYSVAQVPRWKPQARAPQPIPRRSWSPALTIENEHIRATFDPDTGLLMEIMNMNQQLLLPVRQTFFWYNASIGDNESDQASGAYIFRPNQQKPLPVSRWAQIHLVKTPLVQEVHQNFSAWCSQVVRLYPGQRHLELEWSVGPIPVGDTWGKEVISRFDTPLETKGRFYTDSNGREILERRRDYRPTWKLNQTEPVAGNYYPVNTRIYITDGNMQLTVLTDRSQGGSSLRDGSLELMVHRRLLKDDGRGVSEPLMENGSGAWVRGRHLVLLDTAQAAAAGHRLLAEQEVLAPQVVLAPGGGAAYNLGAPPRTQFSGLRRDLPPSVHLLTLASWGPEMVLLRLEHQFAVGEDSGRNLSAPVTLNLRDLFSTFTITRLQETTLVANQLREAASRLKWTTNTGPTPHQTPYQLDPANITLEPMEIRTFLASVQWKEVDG
Assay: peptide pulldown of recombinant LAMAN
Format: binding
Conditions: neutral pH
Procedure: FIG. 6: Characterization of a helical LIMP-2-derived peptide. […] B) In vitro peptide pulldown assay: helix 5 peptides were incubated with recombinant LAMAN and bovine serum albumin (BSA). INPUT and BOUND fractions were loaded onto SDS-PAGE and proteins visualized by coomassie staining (CBB). C) Densitometry of LAMAN and BSA protein bound to peptide, normalized to protein fraction bound to beads only (buffer; n=2-3). D) and E) Activity assay of recombinant (D) GC and (E) LAMAN incubated with different excess molarities (1×-10×) of helix 5 peptide (n=β-5) and LIMP-2 ectodomain (n=4). GC activities were normalized and statistical analyses compared to 0 input of BSA/helix 5 peptide. F) Peptide-pulldown of GC constructs overexpressed in N2a cells with subsequent Western blot analysis (α-hGC) utilizing helix 5 and the 3×D control peptide as a negative binding control. G) Densitometry of GC protein bound to peptides; each construct is normalized to buffer only. H) Live-cell lysosomal GC activity of H4 cells after uptake of helix 5 and 3×D TAT peptides. GC activity was measures every 30 minutes up to 3.5 hours. Cells were treated with DMSO or the “lysosomal inhibitor” bafilomycinA1. […] Lysosomal activity is calculated by subtracting the AUC of DMSO with the AUC of bafilomycinA1 treated samples (n=4). […] GC activity was measured from 16-74 hours and is shown in mU/mg (n=3). […]

Biotin-Ttds-LREIIEAMLKAYQQKLFVTHTVDE [helix 5 peptide]
interaction with recombinant α-mannosidase (LAMAN): no interaction
